The values below come from patent US20240342190A1, “METHODS FOR REDUCING ISCHEMIA-REPERFUSION INJURIES” (BioMimetix JV, LLC, priority 2023, published 2024).

Entries after “also recorded” stand apart in the source; their conditions may differ.

One data set deals with blood brain barrier. Description: Experiment 7: blood brain barrier permeability after intracarotid infusion (Evans blue content). To be noted: non-stroke rats, vs vehicle. The protocol: 30 μg/kg of BMX-001 (n=4), or same amount of saline (n=4) or mannitol (n=4) was given to normal male Wistar rats through the carotid artery. The rats received 100 μl 2% Evans blue intravenous infusion 30 min later and then intracardially perfused using 100 ml normal saline at 30 min following infusion. Brains were harvested and the Evans blue content was measured spectrophotometrically.

Data set [1] deals with animal model of ischemic stroke. The conditions noted are these: given 6 hours after reperfusion; cited from earlier work.

With `OC[C@@H](O)[C@@H](O)[C@H](O)[C@H](O)CO` [Mannitol, reference compound], the “Evans blue content in brain / blood brain barrier permeability, in words” value in the data set with blood brain barrier is given as “significant increase of Evans blue content; also recorded: did increase the blood brain barrier (BBB) permeability”. With `CC[n+]1ccccc1-c1c2nc(c(-c3cccc[n+]3CC)c3ccc([n-]3)c(-c3cccc[n+]3CC)c3nc(c(-c4cccc[n+]4CC)c4ccc1[n-]4)C=C3)C=C2.[Mn+3]` [MnTE-2-PyP^5+], the “Protection in ischemic stroke, in words” value in data set [1] is given as “provided protection”.
